Laboratory results reported in patent US10500198B2, “Bis-benzylidine piperidone proteasome inhibitor with anticancer activity” (The Johns Hopkins University, priority 2013, dated 2019).
pIC50: −log10 of the molar value. Values belong to the compound of their own block, whether it stands above or below them.

Key:
[1] = tested on: tetraubiquitin-firefly luciferase (4UbFL) reporter in HeLa cells; assay: Cell culture assay for luciferase (4UbFL reporter); type: cell-based, human; conditions: 4 hr treatment
Experimental: Sub-confluent cultures of HeLa cells were transfected with 4UbFL or FL plasmids using Lipofectamine 2000 reagent (Life Technologies, Carlsbad, Calif.). […] Luciferase activity in cell lysate was determined with a luciferase assay kit (Promega, Madison, Wis.) according to the manufacturer's instructions. Bioluminescence was measured by using a Glomax Multidetection system (Promega, Madison, Wis., USA).
HeLa cells were transiently transfected with tetra ubiquitin-fused firefly luciferase (4UB-FL) plasmid. After 48 h, the transfected cells were treated with titrations of the indicated compounds for 4 h, and luciferase activity was measured. Data is expressed as a 4UB-FL fold change compared to untreated cells.

[2] = tested on: TNFα-induced NFκB activation in 293 cells; assay: NFκB/FL reporter assay; type: cell-based; conditions: TNFα 10 ng/ml, 7 h
Experimental: 293 cells transiently transfected with either NFκB/FL (firefly luciferase reporter construct under control of an NFκB-driven promoter) or control CMV promoter-driven FL reporter construct were treated with compounds and TNFα (10 ng/ml) for 7 h. Upon the addition of luciferin, bioluminescence was measured in cell lysates using a luminometer. Results can be seen in FIG. 20.
293 cells transiently transfected with either NFκB/FL or control FL reporter genes were treated with compounds and TNFα (10 ng/ml) for 7 h. Upon the addition of luciferin, bioluminescence was measured in cell lysates using a luminometer.

NCI-H929 cells = assay: Active caspase-3 by FACS; type: cell-based, human; conditions: 0.5 μM, 8 h
Experimental: NCI-H929 cells were treated with RA195 (0.5 μM) and Bz(0.5 μM) for the period of 8 h. Cells were stained for PE-conjugated Caspase-3 antibody and measured active caspase-3 by FACS.

U266 cells = assay: Active caspase-3 by FACS; type: cell-based; conditions: 0.5 μM, 8 h
Experimental: U266 cells were treated with RA195 (0.5 μM) and Bz(0.5 μM) for the period of 8 h. Cells were stained for PE-conjugated Caspase-3 antibody and measured active caspase-3 by FACS.

HeLa = assay: Cell viability after 48-hr treatment (Table 1); type: cell-based, human; conditions: Homo sapiens, HeLa; 48-hr treatment; XTT assay; read-out: IC50, HeLa
Experimental: (§1) Cell viability was assayed using CellTiter 960 AQueous One Solution Reagent (Promega, Madison, Wis.). Cells seeded at the concentration of 1,000 cells/well for HeLa, 5,000 cells/well for ES2 and HCT116 and 10,000-20,000 cells/well for other cell lines in 100 μL medium in 96-well plate were treated with RA series compounds at specified concentrations. […]

OVCAR3 = assay: Cell viability after 48-hr treatment (Table 1); type: cell-based, human; conditions: Homo sapiens, OVCAR-3, XTT assay
Experimental: as §1

CasKi = assay: Cell viability after 48-hr treatment (Table 1); type: cell-based; conditions: Homo sapiens, Ca-Ski; 48-hr treatment; XTT assay; read-out: IC50, CasKi
Experimental: (§2) Cell viability was assayed using CellTiter 960 AQueous One Solution Reagent (Promega, Madison, Wis.). Cells seeded at the concentration of 1,000 cells/well for HeLa, 5,000 cells/well for ES2 and HCT116 and 10,000-20,000 cells/well for other cell lines in 100 μL medium in 96-well plate were treated with RA series compounds at specified concentrations. After the indicated periods, cells were incubated according to the manufacturer's protocol with the MTS labeling mixture for 1-2 hr and absorbance at 490 nm measured using a Benchmark Plus microplate spectrophotometer (BIO-RAD).

HOK-16B = assay: Cell viability after 48-hr treatment (Table 1); type: cell-based; conditions: 48-hr treatment; XTT assay; read-out: IC50, HOK-16B
Experimental: as §2

HT3 = assay: Cell viability after 48-hr treatment (Table 1); type: cell-based; conditions: Homo sapiens, HT-3; 48-hr treatment; XTT assay; read-out: IC50, HT3
Experimental: (§3) Cells seeded at the concentration of 1,000 cells/well for HeLa, 5,000 cells/well for ES2 and HCT116 and 10,000-20,000 cells/well for other cell lines in 100 μL medium in 96-well plate were treated with RA series compounds at specified concentrations. […]

HaCaT = assay: Cell viability after 48-hr treatment (Table 1); type: cell-based; conditions: Homo sapiens, HaCaT; 48-hr treatment; XTT assay; read-out: IC50, HaCaT
Experimental: as §3

RPMI8226 = assay: Cell viability after 48-hr treatment (Table 1); type: cell-based; conditions: Homo sapiens, RPMI-8226, XTT assay
Experimental: as §3

SiHa = assay: Cell viability after 48-hr treatment (Table 1); type: cell-based; conditions: Homo sapiens, SiHa; 48-hr treatment; XTT assay; read-out: IC50, SiHa
Experimental: as §3

C33A = assay: Cell viability after 48-hr treatment (Table 1); type: cell-based; conditions: Homo sapiens, C-33-A; 48-hr treatment; XTT assay; read-out: IC50, C33A
Experimental: as §1

FaDu = assay: Cell viability after 48-hr treatment (Table 1); type: cell-based; conditions: Homo sapiens, FaDu; 48-hr treatment; XTT assay; read-out: IC50, FaDu
Experimental: as §1

MM.1S = assay: Cell viability after 48-hr treatment (Table 1); type: cell-based; conditions: Homo sapiens, MM1.S, XTT assay
Experimental: as §1

SKOV3 = assay: Cell viability after 48-hr treatment (Table 1); type: cell-based; conditions: Homo sapiens, SK-OV-3; 48-hr treatment; XTT assay; read-out: IC50, SKOV3
Experimental: as §1

ES-2 = assay: Cell viability after 48-hr treatment (Table 1); type: cell-based, human; conditions: Homo sapiens, ES-2, XTT assay
Experimental: as §3

NCl-H929 = assay: Cell viability after 48-hr treatment (Table 1); type: cell-based, human; conditions: Homo sapiens, XTT assay
Experimental: as §3

HeLa cells [3] = assay: Drug combination index assay; type: cell-based, human; conditions: Homo sapiens, 48 hr, read-out: IC50 (single agent, Compusyn)
Experimental: The combination indices and a normalized isobologram were calculated using Compusyn software (www.combosyn.com).

purified 20S proteasomes = purified 20S proteasomes (Homo sapiens, UniProt P28072+P28074+Q99436); assay: 20S proteolytic activity assay; type: biochemical; conditions: 1 μM, 30 min
Experimental: Actin was used as a loading control. […] In FIG. 9C-E, purified 20S proteasomes were treated for 30 min with or without compounds (1 μM) prior to the addition of the specific fluorogenic substrate for chymotryptic (9C), tryptic (9D) or PGPH (9E) hydrolytic proteasome capacities. […] DMSO was added to all samples to a final concentration of 0.1% (upper panel). The effect of DMSO is highlighted by including ubiquitin—AMC (0.5 μM) hydrolysis with 2 nM UCH37 lacking DMSO (orange, bottom panel). In FIG. 9H, purified 19S RP (500 nM) in buffer was treated with corresponding compounds 30 min at 37° C. and AMC cleavage was measured with a fluorometer for 20 min. Ubal was used as a positive control.
Release of free AMC by the enzyme reaction was determined by measuring its fluorescence at 380 nm (excitation) and 440 nm (emission). The graphs shown are representative of at least three independent determinations and each data point is the mean of ±SD of triplicate determinations.
20S proteasome cleaves the chymotryptic substrate and releases fluorescent AMC.

MM and HeLa cells = assay: Annexin-V flow cytometry; type: cell-based; conditions: 12 hr after treating
Experimental: Activation of ICE family members such as caspase-3 and -7 results in cleavage of poly ADP ribose polymerase (PARP) to 85 kDa and 25 kDa fragments and drives apoptosis.
Induction of apoptosis was determined using Annexin V-PE Apoptosis Detection Kit I (BD Pharmingen, San Diego, Calif.) according to the manufacturer's protocol.

HeLa cells [4] = assay: Cell surface HSP90 staining; type: cell-based, human; conditions: 24 hr
Source text: Cell surface HSP90 was detected by staining with purified anti-HSP90 mAb (Stressgen), followed by PE-conjugated anti-mouse IgG1. The data were acquired with a FACSCalibur and analyzed using CellQuest software.

4UbFL reporter = assay: Proteasome inhibition in vivo (4UbFL reporter bioluminescence); conditions: i.m. electroporated 4UbFL; RA190 40 mg/kg i.p., bortezomib 1.5 mg/kg i.p.
Experimental: After the indicated time points of treatment, bioluminescence was measured by injection of luciferin and imaging with an IVIS 200 (fold change±SD, *p<0.05, **p<0.01).
Two hours after gene gun delivery of the plasmid or one day post electroporation, mice were injected i.p. with 100 uL of luciferin (3 mg/mL) and anesthetized with isoflurane and optical imaging was performed for basal level luciferase expression. Images were acquired for 10 min with a Xenogen IVIS 200 (Caliper, Hopkinton, Mass.). Equally sized areas were analyzed using Living Image 2.20 software.

[5] = Complete blood counts and blood chemistry of C57BL/6 mice carrying TC-1 tumor; conditions: C57BL/6 mice with TC-1 tumor; nine doses every third day: RA190 40 mg/kg p.o., Bortezomib 1.5 mg/kg i.p.; mean ± SD, n = 3;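 further: blood drawn from the heart after euthanasia, cell counts read on an automated hemocytometer, heparinized plasma analyzed on an automated clinical chemistry analyzer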

Compound: CC(=O)N[C@@H](CCCCN)C(=O)N1C/C(=C\c2ccc(Cl)c(Cl)c2)C(=O)/C(=C/c2ccc(Cl)c(Cl)c2)C1.Cl [RA195Ac]
- proteasome inhibition by 4UbFL stabilization (relative potency) [1]: more potent than the parent molecule RA195
- TNFα-induced NFκB activation [2]: inhibited TNFα-induced NFκB activation
- active caspase-3 (NCI-H929 cells): caused an increase in caspase-3 expression
- active caspase-3 (U266 cells): caused an increase in caspase-3 expression

- pIC50 (HeLa): 7.52
- pIC50 (OVCAR3): > 5.60
- pIC50 (RPMI8226): 8.00
- pIC50 (MM.1S): 8.30
- pIC50 (SKOV3): > 5.60
- pIC50 (NCl-H929): 8.30
- pIC50 (HeLa cells [3]): 7.66
- chymotryptic activity of the 20S proteasome (Suc-LLVY-AMC) (purified 20S proteasomes): inhibits
- ALBNEW (Albumin) [5]: 2.50 ± 0.10
- ALPNEW (Alkaline Phosphatase) [5]: 49 ± 5.29
- ALTNEW (Alanine Aminotransferase) [5]: 26.33 ± 2.51
- AMYL (Amylase) [5]: 473 ± 57.86
- ASTNEW (Aspartate aminotransferase) [5]: 53 ± 18.52
- BA(Basophils) [5]: 0.07 ± 0.06
- BUNNEW (Blood Urea Nitrogen) [5]: 22.66 ± 5.13
- CA (Calcium) [5]: 8.83 ± 0.60
- CHOL (Cholesterol) [5]: 69 ± 7.93
- CK_NEW (Creatinine Kinase) [5]: 93.66 ± 3.52
- CREAT (Creatinine) [5]: 0.33 ± 0.05
- EO (Eosinophils) [5]: 0.64 ± 0.48
- GGTNEW (Gamma-Glutamyl Transferase) [5]: 5.00 ± 0.67
- GLU (Glucose) [5]: 128 ± 20.29
- HCT(Hematocrit) [5]: 42.36 ± 4.15
- HDLNEW (High Density Lipoprotein) [5]: 28.33 ± 4.61
- Hb (Hemoglobin) [5]: 11.3 ± 0.70
- LDH (lactate Dehydrogenase) [5]: 245.33 ± 96
- LY(Lymphocytes) [5]: 2.12 ± 1.83
- MCHC (mean corpuscular hemoglobin concentration) [5]: 26.73 ± 1.16
- MCV (Mean corpuscular Volume) [5]: 55.66 ± 1.72
- MO(Monocytes) [5]: 0.20 ± 0.13
- MPV (Mean Platelet Volume) [5]: 5.40 ± 0.10
- NE(Neutrophils) [5]: 24.06 ± 15.07
- PLT (Platelet) [5]: 1346 ± 87.5
- RDW (Red Blood Cell Distribution Width) [5]: 20.13 ± 0.61
- TBIL1 (Total bilirubin) [5]: 0.26 ± 0.05
- TPROT (Total protein) [5]: 4.40 ± 0.26
- TRIG (Triglycerides) [5]: 56.66 ± 15.88
- UA (Uric Acid) [5]: 2.73 ± 0.87
- WBC(White Blood Cells) [5]: 24.85 ± 23.94
Compound: CC(C)C[C@H](NC(=O)[C@H](Cc1ccccc1)NC(=O)c1cnccn1)B(O)O [Bortezomib, reference compound]
- pIC50 (CasKi): 7.30
- pIC50 (HOK-16B): 7.70
- pIC50 (HT3): > 5.60
- pIC50 (HaCaT): > 5.60
- pIC50 (SiHa): 6.00
- pIC50 (C33A): > 5.60
- pIC50 (FaDu): > 5.60
- pIC50 (ES-2): 7.70
- apoptosis (Annexin-V) (MM and HeLa cells): trigger extensive apoptosis
- cells with cell-surface HSP90 (HeLa cells [4]): 12.8%
- bioluminescence compared to vehicle alone, 4 hr after treatment (4UbFL reporter): 2 fold
- increase in bioluminescence, one day post-treatment (4UbFL reporter): 4 fold
